# Source: patent publication US20260207626A1, “SYNTHETIC TRITERPENOIDS AND COMPOSITIONS THEREOF IN WEIGHT MANAGEMENT, SKELETAL MUSCLE FUNCTION, AND APPETITE SUPPRESSION” (The Board of Regents of the University of Texas System, priority 2022, published 2026)
# Entries after “also recorded” stand apart in the source; their conditions may differ.
# Columns and labels:
# IκB-α (Ser32) = experiment: Western blot of LPS-induced IκB-α phosphorylation in L6-GLUT4myc myotubes; format: cell-based, rat; settings: 500 nM CDDO-EA 1 hr then 100 ng/ml LPS 1 hr
# Description: To examine the anti-inflammatory properties of CDDO-EA in skeletal muscle cells, CDDO-EA was examined for its effect on nuclear factor-kappa B (NF-κB) activity in L6-GLUT4myc muscle cells, in the context of LPS-mediated inflammatory responses in L6-GLUT4myc muscle cells. All experiments were independently repeated one to four times and done in duplicate or triplicate, and data were statistically analyzed by One-Way ANOVA or unpaired t-test, two tailed.
# Cells were studied with vehicle alone [0.125% dimethyl sulfoxide (DMSO)] and LPS with and without CDDO-EA. […]
# Western blotting and subcellular fractionation: L6-GLUT4myc myoblasts (4×10^4 cells/ml, 2 ml/well) were seeded onto 6-well dishes and differentiated with differentiation medium for 7 days. […] Protein concentrations were determined using the Pierce BCA Protein Assay (Thermo Fisher Scientific), and equal amounts of protein were separated by electrophoresis and subsequently transferred to nitrocellulose membranes. Membranes were analyzed using the following antibodies from Cell Signaling Technology: phosphorylated NF-κB (Ser536) (93 H1, cat #3033,1:1000), phosphorylated IKB-α (Ser32) (14D4, cat #2859,1:1000), IKB-α (44D4, cat #4812, 1:1000), phosphorylated p38 (Thr180/Tyr182) (cat #9211, 1:1000), p38 (cat #9212, 1:1000). […] Bands were quantitated using ImageQuant (GE Healthcare). […]
# p65 NF-κB = experiment: NF-κB p65 nuclear translocation (immunofluorescence and subcellular fractionation) in L6-GLUT4myc myotubes; format: cell-based, rat
# Protocol: NF-κB is bound to IκB-α in the cytoplasm. Upon activation of the IKK/NF-κB/IκB pathway, IκB is degraded, freeing NF-κB to translocate into the nucleus and activate the transcription of pro-inflammatory mediators. To visualize the localization of NF-κB, immunofluorescence and confocal microscopy studies were performed in L6-GLUT4myc myo-tubes pre-treated with CDDO-EA for 1 h and then exposed to LPS for 1 h. The untreated muscle cells show a basal-level expression of p65 NF-κB in the nucleus (FIG. 14A).
# For subcellular fractionation, differentiated L6-GLUT4myc myotubes were pre-treated with CDDO-EA 500 nM for 1 h follow by LPS 100 ng/ml (E. coli O111: B4, Sigma Aldrich) treatment for 1 h, and the nuclear and cytosolic fractions were isolated using the Nuclear Extraction Kit (Panomics) according to the manufacturer's instructions. The extracted fractions were then analyzed by Western blotting as described.
# Immunofluorescence microscopy: L6-GLUT4myc myoblasts (4×10^4 cells/ml, 0.2 ml/well) were plated onto Nunc Lab-TekII 8-chamber slides (Thermo Fisher Scientific) and differentiated for 7 days. Myotubes were pre-treated with CDDO-EA 500 nM for 1 h followed by LPS 100 ng/ml (E. coli O111: B4, Sigma Aldrich) treatment for 1 h. […]
structure (smiles),measurement,setting,value
"CCNC(=O)[C@]12CCC(C)(C)C[C@H]1C1C(=O)C=C3[C@@]4(C)C=C(C#N)C(=O)C(C)(C)[C@@H]4CC[C@@]3(C)[C@]1(C)CC2 (stereo partly drawn) [CDDO-EA, (4aS,6aR,6bS,8aR,12aS,14bS)-11-cyano-N-ethyl-2,2,6a,6b,9,9,12a-heptamethyl-10,14-dioxo-1,3,4,5,6,6a,6b, 7,8,8a,9,10,12a, 14,14a, 14b-hexadecahydropicene-4a (2H)-carboxamide]",LPS-induced IκB-α phosphorylation,IκB-α (Ser32),decreased LPS-induced NF-κB and nuclear factor of kappa light polypeptide gene enhancer in B-cells inhibitor-alpha (IκB) phosphorylation; also recorded: inhibited the LPS-induced phosphorylation of IκB-α; also recorded: inhibits lipopolysaccharide (LPS)-induced NF-κB and Inhibitory kappa B alpha (IκB-α) phosphorylation
same,LPS-induced p65 NF-κB nuclear translocation,p65 NF-κB; 500 nM CDDO-EA 1 hr then 100 ng/ml LPS 1 hr,reduces LPS-induced p65 NF-κB nuclear staining; also recorded: decreased both cytoplasmic and nuclear localization of p65 NF-κB; also recorded: prevented NF-κB translocation to the nucleus
same,NF-κB activation,"p65 NF-κB; CDDO-EA alone, no LPS",had no effect on NF-κB activation
